Biological target: T1, ELIC (Erwinia chrysanthemi ligand-gated ion channel) (Dickeya chrysanthemi, UniProt P0C7B7)
T1 sequence (P0C7B7 1-321): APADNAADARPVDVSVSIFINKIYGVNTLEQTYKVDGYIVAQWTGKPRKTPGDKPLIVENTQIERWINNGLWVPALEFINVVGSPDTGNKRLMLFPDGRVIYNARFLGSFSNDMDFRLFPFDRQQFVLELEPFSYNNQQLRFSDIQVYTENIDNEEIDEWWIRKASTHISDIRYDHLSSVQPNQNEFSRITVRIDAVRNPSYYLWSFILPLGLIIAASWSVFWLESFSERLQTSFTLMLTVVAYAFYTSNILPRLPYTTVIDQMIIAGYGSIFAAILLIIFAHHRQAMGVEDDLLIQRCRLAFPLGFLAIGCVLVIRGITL
Test: ITC
Format: cell-based

NCCCO [3-AP, 3-amino propanol]
EC50: 10.02 ± 0.05 mM

Source: PMC4586589 (The Journal of General Physiology, 2015)
